Counter-ions that a name gives are not always drawn.
target: HPK1 (Homo sapiens (Human), UniProt Q92918); assay: HPK1 biochemical enzyme assay (microfluidic mobility shift assay); details: 1.5 nM HPK1, ATP 1 mM final, 30 min preincubation, 60 min at RT, Caliper EZ Reader; read-out: HPK1 1000UMATP caliper IC50
Method in brief: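 Ten-point compound titrations (top 3 μM final) preincubated 30 min with HPK1 and substrate, then reaction started with 1 mM ATP and 1 μM substrate, 5 mM MgCl2. After 60 min at RT, reaction terminated and product measured by microfluidic mobility shift.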

HPK1, sequence (Q92918 whole entry): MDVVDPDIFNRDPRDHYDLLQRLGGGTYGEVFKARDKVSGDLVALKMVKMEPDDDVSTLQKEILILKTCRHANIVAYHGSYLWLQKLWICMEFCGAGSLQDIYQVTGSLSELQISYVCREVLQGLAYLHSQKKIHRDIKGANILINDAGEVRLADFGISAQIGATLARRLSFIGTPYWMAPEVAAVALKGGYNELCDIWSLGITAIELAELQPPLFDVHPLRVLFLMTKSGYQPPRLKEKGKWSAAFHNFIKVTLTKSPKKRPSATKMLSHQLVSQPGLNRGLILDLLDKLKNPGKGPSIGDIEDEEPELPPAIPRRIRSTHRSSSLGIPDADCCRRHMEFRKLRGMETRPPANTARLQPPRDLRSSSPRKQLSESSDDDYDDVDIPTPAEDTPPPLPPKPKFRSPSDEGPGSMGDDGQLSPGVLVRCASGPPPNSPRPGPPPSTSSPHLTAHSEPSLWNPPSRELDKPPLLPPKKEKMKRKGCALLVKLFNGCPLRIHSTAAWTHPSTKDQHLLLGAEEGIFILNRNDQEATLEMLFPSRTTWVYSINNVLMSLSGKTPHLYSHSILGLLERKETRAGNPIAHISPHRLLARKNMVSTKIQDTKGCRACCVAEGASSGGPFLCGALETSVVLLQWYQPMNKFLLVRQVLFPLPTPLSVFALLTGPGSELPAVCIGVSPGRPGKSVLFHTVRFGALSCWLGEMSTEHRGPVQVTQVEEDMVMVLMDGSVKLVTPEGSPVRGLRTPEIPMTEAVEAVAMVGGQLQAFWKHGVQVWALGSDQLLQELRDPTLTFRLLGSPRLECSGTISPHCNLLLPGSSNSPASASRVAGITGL

SMILES	IC50 [nM]
CC(C)(c1ccc(Nc2ccc(-c3cnc4cc(F)ccn34)c3c2C(=O)NC3)nc1)N1CCOCC1 [I-747, 4-(7-fluoroimidazo [1,2-a]pyridin-3-yl)-7-((5-(2-morpholino-propan-2-yl)pyridin-2-yl)amino)isoin-dolin-1-one]	< 100
CN1CCCC1C1(O)CCN(c2ccc(Nc3ccc(-c4cnc5cc(F)ccn45)c4c3C(=O)NC4)nc2)CC1 (stereo not drawn) [I-677, 4-(7-fluoroimidazo [1,2-a]pyridin-3-yl)-7-((5-(4-hydroxy-4-(1-methylpyrrol-idin-2-yl)piperidin-1-yl)pyridin-2-yl)amino)isoin-dolin-1-one]	< 100
O=C1NCc2c(-c3cnc4cc(F)ccn34)ccc(Nc3cccc(N4CCCC4=O)n3)c21 [I-340, 4-(7-fluoroimidazo [1,2-a]pyridin-3-yl)-7-((6-(2-oxopyrrolidin-1-yl)pyridin-2-yl)amino)isoin-dolin-1-one]	> 1000
Cn1cc(-c2ccc(Nc3ccc(N4CCC(O)CC4)cn3)c3c2CNC3=O)c2ccnnc21 [I-374, 7-((5-(4-hydroxy-piperidin-1-yl)pyridin-2-yl)amino)-4-(7-methyl-7H-pyrrolo[2,3-c]pyridazin-5-yl)isoindolin-1-one]	< 100
COc1cccn2c(-c3ncc(Nc4ccc(N5CCC[C@H](C(C)(C)O)C5)cn4)c4c3CNC4=O)cnc12 [I-461, 7-[[5-[(3S)-3-(1-hydroxy-1-methylethyl)-1-piperipyl]-2-pyridyl]amino]-4-(8-methoxyimi-dazo[1,2-a]pyridin-3-yl)-2,3-dihydro-pyrrolo[3,4-c]pyridin-1-one]	< 100
CC(C)(O)[C@H]1CN(c2ccc(Nc3cnc(-c4cnc5ccccn45)c4c3C(=O)NC4)nc2)CCO1 [I-470, 7-[[5-[(2R)-2-(1-hydroxy-1-methyl-ethyl)morpholin-4-yl]-2-pyridyl]amino]-4-imidazo[1,2-a]pyridin-3-yl-2,3-dihydropyrrolo [3,4-c]pyridin-1-one]	> 1000
CN1CCc2ccc(Nc3cnc(-c4ccnc5c4ccn5C)c4c3C(=O)NC4)nc2C1 [I-418, 4-(1-methyl-1H-pyrrolo[2,3-b]pyridin-4-yl)-7-((7-methyl-5,6,7,8-tetrahydro-1,7-naphthyridin-2-yl)amino)-2,3-dihydro-1H-pyrrolo[3,4-c]pyridin-1-one]	> 1000
CN(C)Cc1nc(Nc2ccc(-c3cnc4cc(F)ccn34)c3c2C(=O)NC3)ccc1N1CCOCC12CC2 [I-525, 7-[[6-[(dimethylamino)-methyl]-5-(7-oxa-4-azaspiro[2.5]octan-4-yl)-2-pyridyl]amino]-4-(7-fluoroimidazo [1,2-a]pyridin-3-yl)isoindolin-1-one]	< 100
C[C@H](c1ccc(Nc2ccc(-c3cnc4cc(F)ccn34)c3c2C(=O)NC3)nc1)N1CCO[C@@H](C)C1 [I-523, 4-(7-fluoroimidazo [1,2-a]pyridin-3-yl)-7-((5-((R)-1-((S)-2-methylmorpho-lino)ethyl)pyr-idin-2-yl)amino) isoin-dolin-1-one]	< 100
COCCN(C)c1ccc(Nc2ccc(-c3cnc4cc(F)ccn34)c3c2C(=O)NC3)nc1 [I-235, 4-(7-fluoroimidazo [1,2-a]pyridin-3-yl)-7-[[5-[2-methoxyethyl (methyl)amino]-2-pyridyl]amino] isoindolin-1-one]	< 100
CCNC(=O)c1ccn2c(-c3ccc(Nc4ccc(N5CCOCC5)cn4)c4c3CNC4=O)cnc2c1 [I-207, N-ethyl-3-[7-[(5-morpholino-2-pyridyl)-amino]-1-oxo-isoindolin-4-yl]imidazo[1,2-a]pyridine-7-carboxamide]	100 to 1000
COC[C@@H]1CN(c2ccc(Nc3cnc(-c4ccnc5c4ccn5C)c4c3C(=O)NC4)nc2)CC[C@@H]1O [I-436, 7-((5-((3S,4S)-4-hydroxy-3-(methoxymeth-yl)piperidin-1-yl)pyridin-2-yl)amino)-4-(1-methyl-1H-pyrrolo[2,3-b]pyridin-4-yl)-2,3-dihydro-1H-pyrrolo[3,4-c]pyridin-1-one]	< 100
Cn1ccc2c(-c3ccc(Nc4ccc(N5CC[C@@H](O)C5)cn4)c4c3CNC4=O)ccnc21 [I-278, (R)-7-((5-(3-hydroxy-pyrrolidin-1-yl)pyridin-2-yl)amino)-4-(1-methyl-1H-pyrrolo[2,3-b]pyridin-4-yl)isoindolin-1-one]	< 100
CN1CCN(CC2(O)CCN(c3ccc(Nc4ccc(-c5cnc6ccccn56)c5c4C(=O)NC5)nc3)CC2)CC1 [I-403, 7-((5-(4-hydroxy-4-((4-methylpiperazin-1-yl)methyl)pip-eridin-1-yl)pyridin-2-yl)amino)-4-(imidazo[1,2-a]pyridin-3-yl)isoindolin-1-one]	< 100
O=C1NCc2c(-c3cnc4cc(F)ccn34)ccc(Nc3ccc(C4CCOC4)c(N4CCNCC4)n3)c21 (stereo in doubt) [I-772, (S)-4-(7-fluoroimidazo [1,2-a]pyridin-3-yl)-7-((6-(piperazin-1-yl)-5-(tetrahydrofuran-3-yl)pyridin-2-yl)amino)isoin-dolin-1-one]	< 100
O=C1NCc2c(-c3c[nH]c4ccccc34)ncc(Nc3ccc(N4CCC(F)(F)CC4)cn3)c21 [I-12, 7-[[5-(4,4-difluoro-1-piperidyl)-2-pyridyl]amino]-4-(1H-indol-3-yl)-2,3-dihydropyrrolo [3,4-c]pyridin-1-one]	> 1000
CN(C)C(C)(C)[C@@]1(O)CCCN(c2ccc(Nc3ccc(-c4cnc5cc(F)ccn45)c4c3C(=O)NC4)nc2)C1 [I-716, (R)-7-((5-(3-(2-(dimethylainino)propan-2-yl)-3-hydroxy-piperidin-1-yl)pyridin-2-yl)amino)-4-(7-fluoroimidazo [1,2-a]pyridin-3-yl)isoindolin-1-one]	< 100
O=C1NCc2c(-c3cnc4cc(F)ccn34)ccc(Nc3ccc(C4CCOC4)c(N4CCNCC4)n3)c21 (stereo in doubt) [I-773, (R)-4-(7-fluoroimidazo [1,2-a]pyridin-3-yl)-7-((6-(piperazin-1-yl)-5-(tetrahydrofuran-3-yl)pyridin-2-yl)amino)isoin-dolin-1-one]	100 to 1000
C[C@H](O)C1CCN(c2ccc(Nc3ccc(-c4cnc5cc(F)ccn45)c4c3C(=O)NC4)nc2)CC1 [I-214, 4-(7-fluoroimidazo [1,2-a]pyridin-3-yl)-7-[[5-[4-[(1S)-1-hydroxyethyl]-l-piperidyl]-2-pyridyl]amino] isoindolin-1-one]	< 100
Cn1ccc2c(-c3ncc(Nc4ccc([C@@H]5CCOC5)cn4)c4c3CNC4=O)ccnc21 [I-219, (S)-4-(1-methyl-1H-pyrrolo[2,3-b]pyridin-4-yl)-7-((5-(tetrahydro-furan-3-yl)pyridin-2-yl)amino)-2,3-dihydro-1H-pyrrolo[3,4-c]pyridin-1-one]	< 100
CC(C)(O)[C@@H]1CN(c2ccc(Nc3cnc(-c4cnc5ccccn45)c4c3C(=O)NC4)nc2)CCO1 [I-485, 7-[[5-[(2S)-2-(1-hydroxy-1-methyl-ethyl)morpholin-4-yl]-2-pyridyl]amino] 4-imidazo[1,2-a]pyridin-3-yl-2,3-dihydropyrrolo [3,4-c]pyridin-1-one]	< 100
O=C1NCc2c(-c3cnc4cc(F)ccn34)ccc(Nc3cccc(O[C@@H]4CCC[C@@H]4O)n3)c21 (stereo in doubt) [I-353, 4-(7-fluoroimidazo [1,2-a]pyridin-3-yl)-7-((6-(((1S,2R)-2-hydroxycyclo-pentyl)oxy)py-ridin-2-yl)amino) isoin-dolin-1-one]	100 to 1000
CN1CCN(c2ccc(Nc3cnc(-c4cnn5c4CCC5)c4c3C(=O)NC4)nc2)CC1 [I-254, 4-(5,6-dihydro-4H-pyrrolo[1,2-b]pyrazol-3-yl)-7-((5-(4-methylpiperazin-1-yl)pyridin-2-yl)amino)-2,3-dihydro-1H-pyrrolo[3,4-c]pyridin-1-one]	100 to 1000
Cn1cc(-c2ccc(Nc3ccc(N4CCC(O)CC4)cn3)c3c2CNC3=O)c2cnncc21 [I-425, 7-((5-(4-hydroxy-piperidin-1-yl)pyridin-2-yl)amino)-4-(1-methyl-1H-pyrrolo[2,3-d]pyridazin-3-yl)isoindolin-1-one]	< 100
COCCNc1ccn2c(-c3ccc(Nc4ccc(N5CCOCC5)cn4)c4c3CNC4=O)cnc2c1 [I-206, 4-[7-(2-methoxyethyl-amino)imidazo [1,2-a]pyridin-3-yl]-7-[(5-morpholino-2-pyridyl)amino] isoindolin-1-one]	100 to 1000
CN(C[C@H]1CN(c2ccc(Nc3ccc(-c4cnc5cc(F)ccn45)c4c3C(=O)NC4)nc2)CCO1)C1CC1 [I-499, 7-[[5-[(2S)-2-[[cyclopropyl (methyl)amino]methyl]morpholin-4-yl]-2-pyridyl]amino] 4-(7-fluoroimidazo [1,2-a]pyridin-3-yl)isoindolin-1-one]	< 100
O=C1NCc2c(-c3cnc4c(F)cccn34)ncc(Nc3ccc(N4CC[C@@H](F)[C@@H](O)C4)cn3)c21 [I-659]	< 100
Cn1ccc2c(-c3ncc(Nc4ccc(N5CCNCC5)cn4)c4c3CNC4=O)ccnc21 [I-258, 4-(1-methyl-1H-pyrrolo[2,3-b]pyridin-4-yl)-7-((5-(piperazin-1-yl)pyridin-2-yl)amino)-2,3-dihydro-1H-pyrrolo[3,4-c]pyridin-1-one]	< 100
CN(C)Cc1nc(Nc2ccc(-c3cnc4cc(F)ccn34)c3c2C(=O)NC3)ccc1N1CCC(=O)N(C)CC1 [I-534, 7-[[6-[(dimethylamino)-methyl]-5-(4-methyl-5-oxo-1,4-diazepan-1-yl)-2-pyridyl]amino]-4-(7-fluoroimidazo [1,2-a]pyridin-3-yl)isoindolin-1-one Formic acid salt]	< 100
Cc1ccn2c(-c3ncc(Nc4ccc(N5CCO[C@@H](C(C)(C)O)C5)cn4)c4c3CNC4=O)cnc2c1F [I-467, 4-(8-fluoro-7-methyl-imidazo[1,2-a]pyridin-3-yl)-7-[[5-[(2R)-2-(1-hydroxy-1-methyl-ethyl)morpholin-4-yl]-2-pyridyl]amino]-2,3-dihydropyrrolo [3,4-c]pyridin-l-one]	< 100
